Patent US6770748B2, “Bicyclonucleoside and oligonucleotide analogue” (priority 1997, dated 2004)

How the values were obtained:
[1] = tested on: complementary RNA 3′-r(CGCAAAAAACGA) (SEQ ID NO:12); assay: Melting temperature (Tm) of annealing products of antisense oligonucleotide analogues with complementary RNA sense strand; assay type: binding; conditions: for Tm for complementary RNA: 100 mM NaCl, 10 mM sodium phosphate buffer (pH 7.2), 4 μM antisense strand, 4 μM sense strand, UV 260 nm; for ΔTm/mod. for complementary RNA: change of Tm per modified residue versus natural strand
Procedure: (§1) The melting temperatures (Tm's) of annealing products between antisense strands, which were the various oligonucleotide analogues synthesized in Example 2, and natural DNA- or RNA-based sense strands were measured to investigate the hybridizing ability of the oligonucleotide analogues of the present invention for complementary DNA and RNA.
(§2) Each sample solution (500 μL) with end concentrations of 100 mM NaCl, 10 mM sodium phosphate buffer (pH 7.2), 4 μM antisense strand, and 4 μM sense strand, respectively, was bathed in boiling water, and slowly cooled to room temperature over the course of 10 hours. The sample solution was gradually cooled to 5° C., kept at 5° C. for a further period of 20 minutes, and then started to be measured, with a stream of nitrogen being passed through a cell chamber of a spectrophotometer (UV-2100PC, Shimadzu) for prevention of moisture condensation. The sample temperature was raised at a rate of 0.2° C./minute until 90° C., and the ultraviolet absorption at 260 nm was measured at intervals of 0.1° C. To prevent changes in the sample concentration with increases in the temperature, the cell was provided with a closure, and a drop of a mineral oil was applied onto the surface of the sample solution during measurement.

[2] = tested on: complementary DNA 3′-CGCAAAAAACGA-5′ (SEQ ID NO:12); assay: Melting temperature (Tm) of annealing products of antisense oligonucleotide analogues with complementary DNA sense strand; assay type: binding; conditions: for Tm for complementary DNA: 100 mM NaCl, 10 mM sodium phosphate buffer (pH 7.2), 4 μM antisense strand, 4 μM sense strand, UV 260 nm; for ΔTm/mod. for complementary DNA: change of Tm per modified residue versus natural strand
Procedure: as §1, §2

[3] = molecular target: snake venom phosphodiesterase (Crotalus adamanteus, UniProt J3SEZ3)
snake venom phosphodiesterase, sequence (J3SEZ3 24-851 limits assumed): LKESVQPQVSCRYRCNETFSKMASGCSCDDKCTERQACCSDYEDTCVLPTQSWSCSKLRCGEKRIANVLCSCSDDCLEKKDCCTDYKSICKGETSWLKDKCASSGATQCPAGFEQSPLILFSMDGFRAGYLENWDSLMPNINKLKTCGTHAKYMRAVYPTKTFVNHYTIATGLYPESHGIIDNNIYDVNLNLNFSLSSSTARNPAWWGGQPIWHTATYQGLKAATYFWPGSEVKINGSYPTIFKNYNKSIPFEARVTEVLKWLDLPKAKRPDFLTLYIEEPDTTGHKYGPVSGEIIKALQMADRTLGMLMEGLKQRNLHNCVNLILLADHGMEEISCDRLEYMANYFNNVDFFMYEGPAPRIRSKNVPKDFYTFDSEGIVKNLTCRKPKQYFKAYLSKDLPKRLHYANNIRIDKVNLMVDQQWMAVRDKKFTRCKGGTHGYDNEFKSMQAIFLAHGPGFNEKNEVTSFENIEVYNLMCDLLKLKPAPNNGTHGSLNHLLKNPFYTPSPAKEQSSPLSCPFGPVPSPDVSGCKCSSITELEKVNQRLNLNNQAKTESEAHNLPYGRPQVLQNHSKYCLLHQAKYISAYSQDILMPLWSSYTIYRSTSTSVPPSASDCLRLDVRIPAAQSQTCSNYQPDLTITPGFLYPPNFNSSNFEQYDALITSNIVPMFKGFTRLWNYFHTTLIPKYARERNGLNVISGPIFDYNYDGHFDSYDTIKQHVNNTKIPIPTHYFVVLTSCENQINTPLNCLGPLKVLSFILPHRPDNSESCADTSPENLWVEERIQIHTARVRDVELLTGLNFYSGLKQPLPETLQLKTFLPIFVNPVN

[4] = total increase versus natural strand

Row | Compound | Tm for complementary RNA [1] [°C] | ΔTm/mod. for complementary RNA [1] | Tm for complementary DNA [2] [°C] | ΔTm/mod. for complementary DNA [2] | further results
1 | 5′-GCGXXXXXXGCT-3′ [Compound X6] | 71 | +4.3 °C | 58 | +1.8 °C | increase in Tm per modified residue, complementary RNA ([1]; per modified residue versus natural strand): 4 degrees; increase in Tm over the natural strand, complementary RNA [1, 4]: more than 25 degrees; rise in Tm as compared with the natural strand, complementary DNA oligomer [2, 4]: 11 degrees
2 | 5′-GCGTTTXTTGCT-3′ [Compound T3XT2] | 50 | +5 °C | 49 | +2 °C | 
3 | CC(C)(C)[Si](OC[C@@]12CO[C@@H]([C@H](n3cnc4c(NCc5ccccc5)ncnc43)O1)[C@@H]2OCc1ccccc1)(c1ccccc1)c1ccccc1 |  |  |  |  | melting point: 80 to 81 °C
4 | 5′-GCGXXTTTTGCT-3′ [Compound X2T4] | 53 | +4 °C | 51 | +2 °C | 
5 | 5′-GCGTTTTTXGCT-3′ [Compound T5X] | 51 | +6 °C | 52 | +4 °C | 
6 | 5′-GCGTTTTTTTGCT-3′ [natural, reference compound] | 45 |  | 47 |  | 
7 | 5′-GTTTTTTTTTTTC-3′ [natural type] |  |  |  |  | time until ultraviolet absorption reached a plateau after initiation of the enzyme reaction [3]: about 30 minutes; t½ (half-life) ([3]; pH 8.6): 4.33 min
8 | 5′-GCGTTXXTTGCT-3′ [Compound T2X2T2] | 53 | +4 °C | 49 | +1 °C | 
9 | 5′-GCGXTTTTTGCT-3′ [XT6] | 49 | +4 °C | 50 | +3 °C | 
10 | 5′-GCGTTTTXXGCT-3′ [Compound T4X2] | 55 | +5 °C | 54 | +3.5 °C | 
11 | Cc1cn([C@@H]2O[C@@]3(CO)CO[C@@H]2[C@@H]3O)c(=O)[nH]c1=O [Compound 39a, 2′-O,4′-C-methylene-5-methyluridine] |  |  |  |  | melting point: 194 to 195 °C
12 | CC(C)C(=O)Nc1nc2c(ncn2[C@@H]2O[C@@]3(CO[Si](c4ccccc4)(c4ccccc4)C(C)(C)C)CO[C@@H]2[C@@H]3OCc2ccccc2)c(=O)[nH]1 |  |  |  |  | melting point: 99 to 100 °C
13 | 5′-GCGTTXTTTGCT-3′ [Compound T2XT3] | 49 | +4 °C | 49 | +2 °C | 
